Measured values: US10294259B2, “Phenyl c-glucoside derivative containing deoxyglucose structure, preparation method and use thereof” (Tianjin Institute of Pharmaceutical Research, priority 2012, dated 2019)

System: Mice;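 also: test animals were mice weighing 18-20 g, with both sexes in equal numbers in each group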
Experiment: not given
Settings: both, mouse, in vivo, 750 mg/kg, 1 week

| Compound | Behaviors after administration with the compound to be tested |
| --- | --- |
| OCC1OC(c2ccc(F)c(Cc3cc4ccccc4s3)c2)C(O)C(O)C1O (centres unmarked) | 7 dead |
| CCOc1ccc(Cc2cc(C3SC(CO)C(O)C(O)C3O)c(OC)cc2C)cc1 (centres unmarked) | 10 dead |

Same assay, conditions: single dose 750 mg/kg intragastric, 10 mice/group, observed one week

| Compound | Behaviors after administration with the compound to be tested |
| --- | --- |
| CCOc1ccc(Cc2cc(C3OC(CO)C(O)C(O)C3O)ccc2Cl)cc1 (centres unmarked) | 8 dead |
| CCOc1ccc(Cc2cc([C@]34OC[C@](CO)(O3)[C@@H](O)[C@H](O)[C@H]4O)ccc2Cl)cc1 | 9 dead |
| CCCOc1ccc(Cc2cc(C3OC(C)C(O)C(O)C3O)ccc2Cl)cc1 (centres unmarked) | 6 dead |
| CCOc1ccc(Cc2cc(C3CC(O)C(O)C(CO)O3)ccc2Cl)cc1 (centres unmarked) | 2 dead |
| Cc1ccc(C2OC(CO)CC(O)C2O)cc1Cc1ccc(-c2ccc(F)cc2)s1 (centres unmarked) | 3 dead |
| Cc1ccc(C2CC(O)C(O)C(CO)O2)cc1Cc1ccc(-c2ccc(F)cc2)s1 (centres unmarked) | 5 dead |
| CC1OC(c2ccc(F)c(Cc3cc4ccccc4s3)c2)C(O)C(O)C1O (centres unmarked) | 2 dead |
| OCC1OC(c2ccc(Cl)c(Cc3ccc(O[C@H]4CCOC4)cc3)c2)C(O)CC1O (some centres unmarked) | 0 dead |
| Cc1ccc(C2OC(CO)C(O)C(O)C2O)cc1Cc1ccc(-c2ccc(F)cc2)s1 (centres unmarked) | 9 dead |
| OCC1OC(c2ccc(Cl)c(Cc3ccc(O[C@H]4CCOC4)cc3)c2)C(O)C(O)C1O (some centres unmarked) | 7 dead |
| CCOc1ccc(Cc2cc(C3OC(CO)C(O)CC3O)ccc2Cl)cc1 (centres unmarked) | 3 dead |
| Cc1ccc(C2OC(C)C(O)C(O)C2O)cc1Cc1ccc(-c2ccc(F)cc2)s1 (centres unmarked) | 4 dead |
| Cc1ccc(C2OC(CO)C(O)CC2O)cc1Cc1ccc(-c2ccc(F)cc2)s1 (centres unmarked) | 3 dead |
| OCC1OC(c2ccc(F)c(Cc3cc4ccccc4s3)c2)C(O)CC1O (centres unmarked) | 0 dead |
| OCC1CC(O)C(O)C(c2ccc(F)c(Cc3cc4ccccc4s3)c2)O1 (centres unmarked) | 1 dead |
| OCC1OC(c2ccc(F)c(Cc3cc4ccccc4s3)c2)CC(O)C1O (centres unmarked) | 3 dead |
| CC1OC(c2ccc(Cl)c(Cc3ccc(O[C@H]4CCOC4)cc3)c2)C(O)C(O)C1O (some centres unmarked) | 1 dead |
| OCC1OC(c2ccc(Cl)c(Cc3ccc(O[C@H]4CCOC4)cc3)c2)CC(O)C1O (some centres unmarked) | 2 dead |
| CCc1ccc(Cc2c(Cl)ccc3c2COC32OC(CO)C(O)CC2O)cc1 (centres unmarked) | 5 dead |
| CCOc1ccc(Cc2cc(C3SC(CO)CC(O)C3O)c(OC)cc2C)cc1 (centres unmarked) | 1 dead |
| CCc1ccc(Cc2c(Cl)ccc3c2COC32CC(O)C(O)C(CO)O2)cc1 (centres unmarked) | 2 dead |

| Compound | Behaviors after administration with the compound to be tested |
| --- | --- |
| CCOc1ccc(Cc2cc(C3CC(O)C(O)C(CO)S3)c(OC)cc2C)cc1 (centres unmarked) | 3 dead |
| CCOc1ccc(Cc2cc([C@]34OC[C@](C)(O3)[C@@H](O)[C@H](O)[C@H]4O)ccc2Cl)cc1 | 3 dead |
| CCOc1ccc(Cc2cc([C@@]34OC[C@@](CO)(C[C@H](O)[C@H]3O)O4)ccc2Cl)cc1 | 4 dead |
| CCOc1ccc(Cc2cc(C3OC(C)CC(O)C3O)ccc2Cl)cc1 (centres unmarked) | 1 dead |
| CC1OC(c2ccc(F)c(Cc3cc4ccccc4s3)c2)CC(O)C1O (centres unmarked) | 1 dead |
| CCc1ccc(Cc2c(Cl)ccc3c2COC32CC(O)CC(CO)O2)cc1 (centres unmarked) | 1 dead |
| OCC1CC(O)C(O)C(c2ccc(Cl)c(Cc3ccc(O[C@H]4CCOC4)cc3)c2)O1 (some centres unmarked) | 2 dead |
| CCc1ccc(Cc2c(Cl)ccc3c2COC32OC(CO)CC(O)C2O)cc1 (centres unmarked) | 5 dead |
| CCc1ccc(Cc2c(Cl)ccc3c2COC32OC(C)C(O)C(O)C2O)cc1 (centres unmarked) | 3 dead |
| CCOc1ccc(Cc2cc(C3SC(C)C(O)C(O)C3O)c(OC)cc2C)cc1 (centres unmarked) | 4 dead |
| CCOc1ccc(Cc2cc([C@]34C[C@@H](O)[C@H](O)[C@](CO)(CO3)O4)ccc2Cl)cc1 | 2 dead |
| CCOc1ccc(Cc2cc([C@]34OC[C@](CO)(O3)[C@@H](O)C[C@H]4O)ccc2Cl)cc1 | 3 dead |
| Cc1ccc(C2OC(C)C(O)CC2O)cc1Cc1ccc(-c2ccc(F)cc2)s1 (centres unmarked) | 0 dead |
| OCC1CCC(O)C(c2ccc(Cl)c(Cc3ccc(O[C@H]4CCOC4)cc3)c2)O1 (some centres unmarked) | 2 dead |
| CCc1ccc(Cc2c(Cl)ccc3c2COC32OC(CO)C(O)C(O)C2O)cc1 (centres unmarked) [drawing 269] | 7 dead |
| CCOc1ccc(Cc2cc(C3OC(CO)CC(O)C3O)ccc2Cl)cc1 (centres unmarked) [drawing 272] | 2 dead |
| COc1ccc(Cc2cc(C3OC(C)C(O)C(O)C3O)ccc2Cl)cc1 (centres unmarked) [drawing 281] | 7 dead |
| CCOc1ccc(Cc2cc(C3OC(C)C(O)C(O)C3O)ccc2Cl)cc1 (centres unmarked) [drawing 282] | 1 dead |
| CCOc1ccc(Cc2cc(C3SC(CO)C(O)CC3O)c(OC)cc2C)cc1 (centres unmarked) [drawing 303] | 0 dead |
| CCOc1ccc(Cc2cc(C3SC(CO)C(O)CC3O)c(OC)cc2C)cc1 (centres unmarked) [drawing 304] | 3 dead |
| CCOc1ccc(Cc2cc(C3CCC(O)C(CO)S3)c(OC)cc2C)cc1 (centres unmarked) [drawing 310] | 0 dead |

System: SD rats (type 2 diabetes model)
Experiment: Urine glucose excretion in streptozotocin/high-fat high-sucrose diet type 2 diabetes model rats, glucose-oxidase method
Format: in vivo, rat
Settings: 6 mg/kg intragastric, glucose 2 g/kg at 0.5 h, urine collected 0-12 h
Procedure: The health SD rats are injected intraperitoneally with multiple low doses of streptozotocin for modeling (type 2 diabetes model) after feeding with high-fat and high-sucrose diet, and the content of blood glucose is measured before and after modeling. After the modeling successful, the rats for modeling are randomly divided (8 rats/group) into one blank group (administering the same volume of 0.5% CMC sodium solution) and several groups for compounds to be tested (6 mg/kg) according to the content of 24-hour urine glucose and the body weight. Rats in each group are fasted for 16 hours before experiment. The experimental rats are administered intragastrically with glucose (2 g/kg) at 0.5 h after intragastrical administration with compounds to be tested. The urine is collected at the time-period of 0-12 h after administration, and the urine glucose values are measured at each time-period by glucose-oxidase method. […]

| Compound | Urine glucose excretion |
| --- | --- |
| COc1ccc(Cc2cc(C3OC(CO)CC(O)C3O)ccc2Cl)cc1 (centres unmarked) | 310 mg/200 g body weight of the rat |
| CCc1ccc(Cc2cc(C3OC(CO)C(O)CC3O)ccc2C)cc1 (centres unmarked) | 230 mg/200 g body weight of the rat |
| CCOc1ccc(Cc2cc(C3OC(C)(C)C(O)C(O)C3O)ccc2Cl)cc1 (centres unmarked) | 470 mg/200 g body weight of the rat |
| C=C1OC(c2ccc(Cl)c(Cc3ccc(OC)cc3)c2)C(O)C(O)C1O (centres unmarked) | 410 mg/200 g body weight of the rat |
| COc1ccc(Oc2cc(C3OC(C)C(O)C(O)C3O)ccc2Cl)cc1 (centres unmarked) | 457 mg/200 g body weight of the rat |
| CCOc1ccc(Cc2cc(C3OC(C)C(O)C(O)C3O)ccc2C)cc1 (centres unmarked) [drawing 219] | 700 mg/200 g body weight of the rat |

Same assay, conditions: compared with analogues or non-deoxy compounds

| Compound | urine glucose excretion effect (comparison in words) |
| --- | --- |
| CCOc1ccc(Cc2cc([C@@H]3C[C@@H](O)[C@H](O)[C@@H](CO)O3)ccc2Cl)cc1 [I-D1-2, (1S)-1-[4-chloro-3-(4-ethoxybenzyl)phenyl]-1,2-dideoxy-D-glucose] | stronger urine glucose excretion effect |
| CCOc1ccc(Cc2cc([C@@H]3O[C@H](CO)[C@@H](O)C[C@H]3O)ccc2Cl)cc1 [I-D1-3, (1S)-1-[4-chloro-3-(4-ethoxybenzyl)phenyl]-1,3-dideoxy-D-glucose] | stronger urine glucose excretion effect |
| CCOc1ccc(Cc2cc([C@@H]3O[C@H](CO)C[C@H](O)[C@H]3O)ccc2Cl)cc1 [I-D1-4, (1S)-1-[4-chloro-3-(4-ethoxybenzyl)phenyl]-1,4-dideoxy-D-glucose] | stronger urine glucose excretion effect |
